We go through 6 compounds from ChEMBL document CHEMBL1201862, “PubChem BioAssay data set” (2004).

Assay [1] has as its target Glutathione-S-transferase (Schistosoma japonicum, UniProt Q26513). Description: GST-antibody interaction or FRET quenching – biochemical, TR-FRET, artefact control for Vif-APOBEC3G degradation inhibitor project, dose response (AID 1117362). The assay is classed as functional. For orientation: In TR-FRET formats the signal depends on donor and acceptor labels being close together.

A further assay has as its target T1, Bcl-2-like protein 10 (Homo sapiens, UniProt Q9HD36).
T1 sequence (Q9HD36 whole entry): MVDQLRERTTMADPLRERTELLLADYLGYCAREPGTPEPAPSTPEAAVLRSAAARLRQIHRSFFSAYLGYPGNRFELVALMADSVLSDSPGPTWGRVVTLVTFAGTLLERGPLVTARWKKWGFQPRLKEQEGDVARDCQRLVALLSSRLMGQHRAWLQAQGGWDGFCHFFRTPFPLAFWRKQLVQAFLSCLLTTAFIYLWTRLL
Description: Bcl-B/TR3 peptide binding disruption – biochemical, fluorescence polarization, FITC-TR3 peptide, selectivity assay for Bfl-1 inhibitor project, primary screen (AID 748).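 Further: fluorescence polarization from a fluorescein-labelled TR3 peptide binding purified Bcl-B.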

The target in the next assay is Estrogen receptor beta (Homo sapiens, UniProt Q92731). Description: blockers of SRC-3 recruitment to ERβ – biochemical, ELISA, streptavidin-HRP readout, orthogonal assay, confirmation (AID 1060). In general terms: ELISA stands for enzyme-linked immunosorbent assay.
Sequence of Estrogen receptor beta (Q92731 whole entry): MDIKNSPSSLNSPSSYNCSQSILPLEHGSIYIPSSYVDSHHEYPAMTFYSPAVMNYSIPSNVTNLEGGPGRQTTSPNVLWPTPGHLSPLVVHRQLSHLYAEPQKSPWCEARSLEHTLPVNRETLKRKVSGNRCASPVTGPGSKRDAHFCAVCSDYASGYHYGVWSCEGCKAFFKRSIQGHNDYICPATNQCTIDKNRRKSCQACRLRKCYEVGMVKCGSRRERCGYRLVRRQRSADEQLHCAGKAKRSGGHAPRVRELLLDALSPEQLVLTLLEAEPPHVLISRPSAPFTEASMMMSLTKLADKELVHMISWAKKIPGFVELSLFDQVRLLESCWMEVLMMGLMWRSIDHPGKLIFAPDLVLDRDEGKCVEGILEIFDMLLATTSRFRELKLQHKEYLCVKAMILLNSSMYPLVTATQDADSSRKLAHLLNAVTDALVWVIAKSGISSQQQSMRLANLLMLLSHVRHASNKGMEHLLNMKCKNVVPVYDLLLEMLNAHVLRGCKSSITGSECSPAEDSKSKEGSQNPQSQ
In assay [2] the target is T2, Zinc finger protein mex-5 (Caenorhabditis elegans, UniProt Q9XUB2).
T2 sequence (Q9XUB2 whole entry): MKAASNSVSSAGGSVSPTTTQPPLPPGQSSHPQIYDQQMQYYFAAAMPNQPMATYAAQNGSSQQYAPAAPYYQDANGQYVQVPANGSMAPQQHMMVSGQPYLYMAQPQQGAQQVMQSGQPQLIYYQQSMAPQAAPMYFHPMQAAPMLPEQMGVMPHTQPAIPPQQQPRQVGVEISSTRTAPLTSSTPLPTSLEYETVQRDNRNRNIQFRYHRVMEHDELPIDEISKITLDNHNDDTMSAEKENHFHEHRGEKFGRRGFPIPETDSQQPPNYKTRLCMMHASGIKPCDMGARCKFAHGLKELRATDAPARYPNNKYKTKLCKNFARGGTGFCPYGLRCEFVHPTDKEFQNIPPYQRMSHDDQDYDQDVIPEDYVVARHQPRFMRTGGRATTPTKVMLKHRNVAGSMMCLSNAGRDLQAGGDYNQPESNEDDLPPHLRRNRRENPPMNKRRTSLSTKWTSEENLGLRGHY
Briefly: potency of MEX-5 RNA-binding blockers – biochemical, C. elegans, fluorescence polarization, dose response (AID 1960).

Assay [3] addresses T3, RNA-binding protein pos-1 (Caenorhabditis elegans, UniProt G5EF15).
T3 sequence (G5EF15 whole entry): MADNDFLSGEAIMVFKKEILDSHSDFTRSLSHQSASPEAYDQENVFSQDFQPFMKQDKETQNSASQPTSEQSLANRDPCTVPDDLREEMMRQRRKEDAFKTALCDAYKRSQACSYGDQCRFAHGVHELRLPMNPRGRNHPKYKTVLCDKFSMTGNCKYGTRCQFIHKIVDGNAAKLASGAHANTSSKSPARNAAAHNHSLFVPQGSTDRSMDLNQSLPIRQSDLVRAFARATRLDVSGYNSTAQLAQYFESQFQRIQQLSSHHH
Briefly: disruptors of C. elegans POS-1 RNA interaction – biochemical, fluorescence polarization, dose response (AID 1964). (In general: Polarisation of emitted light reports the rotation of a fluorescent probe.)

Another assay has as its target Large T antigen (Simian virus 40, UniProt P03070). The assay is classed as functional, Betapolyomavirus macacae.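 Further: Confirmatory-stage PubChem screen for compounds that inhibit SV40 T antigen.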
Assay [4] deals with T4, Polyadenylate-binding protein 1 (Homo sapiens, UniProt P11940). Description: MLLE binding blockers, Cy5 peptide tracer – biochemical, fluorescence polarization, Cy5-PAM2 peptide, secondary, miRNA deadenylation inhibitor project, dose response (AID 602260). As to conditions: read-out: IC50_Mean. In kind it is functional.
T4 sequence (P11940 whole entry): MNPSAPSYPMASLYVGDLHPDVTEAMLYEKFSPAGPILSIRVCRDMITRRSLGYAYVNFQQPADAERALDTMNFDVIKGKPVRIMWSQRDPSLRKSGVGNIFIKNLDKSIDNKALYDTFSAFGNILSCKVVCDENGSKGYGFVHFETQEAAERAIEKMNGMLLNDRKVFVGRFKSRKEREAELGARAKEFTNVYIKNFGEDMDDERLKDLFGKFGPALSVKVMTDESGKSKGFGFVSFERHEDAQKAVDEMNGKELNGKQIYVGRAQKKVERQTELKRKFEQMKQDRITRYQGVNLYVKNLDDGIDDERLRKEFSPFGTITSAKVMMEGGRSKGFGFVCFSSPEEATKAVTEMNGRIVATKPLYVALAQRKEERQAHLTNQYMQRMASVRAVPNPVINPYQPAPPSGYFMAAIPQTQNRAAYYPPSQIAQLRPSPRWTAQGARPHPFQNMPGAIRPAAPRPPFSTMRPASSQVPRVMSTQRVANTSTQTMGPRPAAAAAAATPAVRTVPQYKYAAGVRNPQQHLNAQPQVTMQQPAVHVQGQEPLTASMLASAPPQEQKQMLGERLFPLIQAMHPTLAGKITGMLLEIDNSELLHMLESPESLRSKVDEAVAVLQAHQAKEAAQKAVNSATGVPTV
The next assay deals with Genome polyprotein (dengue virus type 2, UniProt P29990). Briefly: flavivirus cap methylation enzyme inhibition – biochemical, confirmation dose response, primary screen (AID 588689). In kind it is functional.
Sequence of Genome polyprotein (P29990 2492-3391 limits assumed): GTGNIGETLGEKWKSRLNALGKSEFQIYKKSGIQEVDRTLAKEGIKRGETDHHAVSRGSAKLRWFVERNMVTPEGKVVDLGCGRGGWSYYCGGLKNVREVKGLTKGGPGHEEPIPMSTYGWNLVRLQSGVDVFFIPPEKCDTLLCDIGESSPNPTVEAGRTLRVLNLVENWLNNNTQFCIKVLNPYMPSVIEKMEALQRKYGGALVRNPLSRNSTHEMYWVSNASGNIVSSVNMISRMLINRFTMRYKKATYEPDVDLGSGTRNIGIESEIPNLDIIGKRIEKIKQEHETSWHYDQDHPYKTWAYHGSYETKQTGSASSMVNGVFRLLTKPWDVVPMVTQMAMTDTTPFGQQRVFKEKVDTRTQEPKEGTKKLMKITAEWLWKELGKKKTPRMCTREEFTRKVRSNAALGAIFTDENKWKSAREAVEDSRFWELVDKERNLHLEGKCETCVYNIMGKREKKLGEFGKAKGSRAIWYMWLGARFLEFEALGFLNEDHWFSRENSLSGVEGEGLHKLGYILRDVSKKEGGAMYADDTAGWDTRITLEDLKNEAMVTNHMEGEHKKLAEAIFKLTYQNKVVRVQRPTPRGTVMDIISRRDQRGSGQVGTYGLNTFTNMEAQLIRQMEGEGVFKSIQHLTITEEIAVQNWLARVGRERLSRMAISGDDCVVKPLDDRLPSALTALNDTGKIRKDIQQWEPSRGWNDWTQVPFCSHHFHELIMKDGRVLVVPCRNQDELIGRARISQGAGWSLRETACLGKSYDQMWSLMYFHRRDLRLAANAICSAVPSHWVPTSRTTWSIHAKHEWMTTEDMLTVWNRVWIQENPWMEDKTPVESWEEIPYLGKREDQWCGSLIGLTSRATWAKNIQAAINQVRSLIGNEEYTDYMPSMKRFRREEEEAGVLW
Assay [5] addresses T4, Polyadenylate-binding protein 1. Description: MLLE domain peptide-binding blockers, IC50 – biochemical, fluorescence polarization, FITC-PAM2 peptide, dose response (AID 602259). The settings on record: read-out: IC50_Mean. In kind it is functional.
In assay [6] the target is NAD-dependent protein deacylase sirtuin-5, mitochondrial (Homo sapiens, UniProt Q9NXA8). Briefly: blockers of sirtuin-5 peptide desuccinylation – biochemical, fluorescence imaging, cherry-pick, set 6, dose response (AID 720597).
Sequence of NAD-dependent protein deacylase sirtuin-5, mitochondrial (Q9NXA8 whole entry): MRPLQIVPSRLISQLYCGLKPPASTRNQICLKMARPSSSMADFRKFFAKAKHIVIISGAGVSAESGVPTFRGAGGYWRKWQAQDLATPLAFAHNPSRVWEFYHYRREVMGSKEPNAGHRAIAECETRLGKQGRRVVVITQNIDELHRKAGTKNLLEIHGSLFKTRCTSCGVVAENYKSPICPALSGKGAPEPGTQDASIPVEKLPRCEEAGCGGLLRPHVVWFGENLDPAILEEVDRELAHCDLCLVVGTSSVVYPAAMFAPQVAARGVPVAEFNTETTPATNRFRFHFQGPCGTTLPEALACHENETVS
A further assay has as its target Kallikrein-7 (Homo sapiens, UniProt P49862). Description: Fluorescence Intensity-based biochemical primary high throughput dose response assay to identify activators of kallikrein-7 (K7) zymogen.
A short description of assay [7]: SNU-C1 cell viability reduction, dose response, CellTiter-Glo luminescence (AID 1117323). The assay is classed as functional, cell-based.
Assay [8] is described as follows: rise of 2N DNA cells, HeLa – IC50, dose response (AID 1117349). In kind it is functional, cell-based.
The nature of assay [9]: cytotoxicity toward Colo320 cells – cell-based, CellTiter-Glo luminescence, IC50, dose response (AID 1117334). The assay is classed as functional. The settings on record: COLO 320.
Assay [10] is described as follows: CellTiter-Glo luminescence survival assay, SW480 colon tumor line, concentration-response curve, half-maximal inhibitory concentration (AID 1117338). The assay is classed as functional.
The nature of assay [11]: cytotoxicity toward HT-29 cells – cell-based, CellTiter-Glo luminescence, IC50, dose response (AID 1117330). In kind it is functional.
Assay [12] is described as follows: cytotoxicity toward HCT116 cells – cell-based, CellTiter-Glo luminescence, IC50, dose response (AID 1117332). The assay is classed as functional. The settings on record: HCT-116.
Assay [13] is described as follows: RKO cell viability reduction, dose response, CellTiter-Glo luminescence (AID 1117322). In kind it is functional.
A short description of assay [14]: rise of 4N DNA cells, HeLa – IC50, dose response (AID 1117351). The assay is classed as functional, cell-based.
A short description of assay [15]: HCT116 cell viability decrease, GSK3B pretreatment – CellTiter-Glo, IC50, dose response (AID 1117339). As to conditions: HCT-116. In kind it is functional.
The nature of assay [16]: Reduced DLD-1 viability, concentration-response, CellTiter-Glo luminescence (AID 1117352). The assay is classed as functional.
A short description of assay [17]: COV362 cell viability loss – plate reader, dry powder, SA12, cytotoxicity control for PAX8 inhibitor project, dose response (AID 743144). In kind it is functional, cell-based.
Assay [18] can be described thus: COV434 cell viability loss – plate reader, dry powder, SA7, cytotoxicity control for PAX8 inhibitor project, dose response (AID 743145). In kind it is functional, cell-based.
Assay [19] is described as follows: PAX5 cellular inhibition readout – cell-based, plate reader, dry powder samples, selectivity assay for PAX8 inhibitor project, dose response (AID 743047).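 Further: HEK293 cells carrying a Pax5 driven CD19 promoter luciferase reporter; potency of inhibitors that lower reporter luminescence.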 The assay is classed as functional.
Assay [20] in a line: OV-90 cell viability loss – plate reader, dry powder, SA8, PAX8 inhibitor project, dose response (AID 743149). In kind it is functional, cell-based.
Assay [21] in a line: IGROV1 cell killing – plate reader, dry powder samples, PAX8 inhibitor project, dose response (AID 743043). In kind it is functional, cell-based. As to conditions: IGROV-1.
Assay [22] is described as follows: general cell-killing toxicity readout – plate reader, dry powder samples, cytotoxicity control for PAX8 inhibitor project, dose response (AID 743021). The assay is classed as functional, cell-based.
The nature of assay [23]: OVCAR4 cell viability loss – plate reader, dry powder, SA11, cytotoxicity control for PAX8 inhibitor project, dose response (AID 743150). In kind it is functional, cell-based. As to conditions: OVCAR-4.
Assay [24] in a line: PAX8-dependent cell viability loss – plate reader, dry powder, dose response (AID 743049). In kind it is functional, cell-based.
Assay [25] in a line: inhibitors acting on PAX2 in cells – cell-based, plate reader, dry powder samples, selectivity assay for PAX8 inhibitor project, dose response (AID 743048).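 Further: HEK293 cells carrying a WT1 promoter luciferase reporter driven by expressed Pax2; potency is for inhibition of Pax2 driven reporter signal.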 In kind it is functional.
A short description of assay [26]: OVCAR-3 cell viability loss – plate reader, dry powder samples, PAX8 inhibitor project, dose response (AID 743044). In kind it is functional, cell-based.
Assay [27] addresses G-protein coupled receptor 183 (Homo sapiens, UniProt P32249). Briefly: SAR confirmation of small molecule antagonists of the EBI2 receptor via a luminescent beta-arrestin assa. In kind it is functional.

SMILES strings stand for the structures. Activity calls are given as the source filed them.

Sequence of Glutathione-S-transferase (Q26513 whole entry): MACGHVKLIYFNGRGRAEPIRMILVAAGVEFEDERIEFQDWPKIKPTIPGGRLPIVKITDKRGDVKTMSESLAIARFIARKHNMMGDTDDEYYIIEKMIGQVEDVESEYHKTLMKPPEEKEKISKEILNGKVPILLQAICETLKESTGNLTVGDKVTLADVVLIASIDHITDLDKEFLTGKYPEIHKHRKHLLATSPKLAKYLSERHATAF
Sequence of Kallikrein-7 (P49862 whole entry): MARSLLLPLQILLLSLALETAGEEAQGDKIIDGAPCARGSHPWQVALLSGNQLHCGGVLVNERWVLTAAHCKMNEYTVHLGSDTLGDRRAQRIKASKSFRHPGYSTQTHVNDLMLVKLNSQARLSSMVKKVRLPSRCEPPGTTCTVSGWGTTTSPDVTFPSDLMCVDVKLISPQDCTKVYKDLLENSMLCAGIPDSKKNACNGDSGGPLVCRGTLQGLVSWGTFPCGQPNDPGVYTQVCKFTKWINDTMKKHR
Sequence of Large T antigen (P03070 whole entry): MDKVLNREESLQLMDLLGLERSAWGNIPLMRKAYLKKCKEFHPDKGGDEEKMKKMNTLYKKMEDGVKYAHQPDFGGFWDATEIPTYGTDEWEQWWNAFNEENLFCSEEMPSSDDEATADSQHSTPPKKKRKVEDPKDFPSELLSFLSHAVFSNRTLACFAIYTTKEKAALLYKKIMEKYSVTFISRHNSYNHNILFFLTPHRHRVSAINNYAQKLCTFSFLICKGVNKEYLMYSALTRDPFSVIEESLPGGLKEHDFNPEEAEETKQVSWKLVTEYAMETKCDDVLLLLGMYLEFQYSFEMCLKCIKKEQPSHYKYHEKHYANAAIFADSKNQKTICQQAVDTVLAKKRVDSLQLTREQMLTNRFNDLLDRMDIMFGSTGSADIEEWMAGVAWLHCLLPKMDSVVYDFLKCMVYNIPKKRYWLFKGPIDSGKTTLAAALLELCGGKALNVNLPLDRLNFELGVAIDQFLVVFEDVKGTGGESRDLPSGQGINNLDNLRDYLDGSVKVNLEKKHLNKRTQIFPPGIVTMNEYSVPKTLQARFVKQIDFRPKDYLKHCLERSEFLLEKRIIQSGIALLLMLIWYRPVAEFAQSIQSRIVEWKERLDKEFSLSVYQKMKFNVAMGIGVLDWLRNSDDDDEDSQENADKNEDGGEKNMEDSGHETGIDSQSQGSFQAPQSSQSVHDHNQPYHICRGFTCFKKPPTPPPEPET
Sequence of G-protein coupled receptor 183 (P32249 whole entry): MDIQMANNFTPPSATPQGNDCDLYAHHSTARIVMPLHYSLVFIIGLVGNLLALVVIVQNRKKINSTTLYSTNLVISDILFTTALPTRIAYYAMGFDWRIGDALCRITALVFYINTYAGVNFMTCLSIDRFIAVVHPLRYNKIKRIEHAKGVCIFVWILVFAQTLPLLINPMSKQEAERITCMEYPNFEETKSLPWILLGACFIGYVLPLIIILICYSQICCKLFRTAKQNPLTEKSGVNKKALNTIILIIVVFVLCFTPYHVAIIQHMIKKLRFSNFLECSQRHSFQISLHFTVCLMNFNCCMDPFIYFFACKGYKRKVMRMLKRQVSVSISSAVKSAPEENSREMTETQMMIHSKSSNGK

One may read the EC50 as the concentration at which the effect is half-maximal. For the compound `O=c1oc2c3c4c(cc2s1)CCCN4CCC3`, the IC50 in assay [1] is 66.2 µM (active); on Bcl-2-like protein 10, 10.4 µM (active); on Estrogen receptor beta, > 50 µM (not active); at Large T antigen, 17.9 µM (active); in assay [4] it was > 66 µM (inactive); at Genome polyprotein, 86.7 µM (active). Also, the IC50 in [5] is 48 µM (inactive). For the same compound, the figures for the EC50 in [2] and in assay [3] were 24.1 µM (inconclusive) and 28.1 µM (active), respectively.
What is called AC50 is the concentration giving half of the maximal activity seen. Turning to `COCC(=O)N1C[C@H](C)[C@H](OC)CN(C)C(=O)c2cc(NC(=O)C3CCC3)ccc2OC[C@@H]1C`, the AC50 in assay [6] is 13.2 µM (active).
For `COc1ccc(NC(=O)c2cc(-c3ccco3)on2)cc1OC`, the EC50 on Kallikrein-7 was 13.1 µM (inactive).
For the compound `CCC(=O)c1ccc(O)cc1` [PAROXYPROPIONE], the IC50 in [7] is > 20 µM (inactive); in assay [8], > 10 µM (inactive); in [9], > 20 µM (inactive); in assay [10], 4.1 µM (active); in assay [11], > 20 µM (inactive); in assay [12], > 20 µM (inactive). The IC50 in assay [13] is 7.8 µM (inactive); in assay [14], > 10 µM (inactive); in assay [15] it was 6.25 µM (inactive); in assay [16] it was 6.67 µM (inactive).
On to `CN(C)CCN(C(=O)/C=C/c1cccs1)c1nc2c(F)cc(F)cc2s1`, for which the AC50 is 21.2 µM (active) in assay [17]; 44.9 µM (active) in assay [18]; > 100 µM (inactive) in assay [19]; 32.8 µM (active) in [20]; 34.3 µM (active) in [21]; 11.6 µM (active) in [22]. Moreover, the concentration at half-maximal activity (AC50) is 31.2 µM (active) in [23], 19.4 µM (active) in assay [24], > 100 µM (inactive) in assay [25] and 29.1 µM (active) in assay [26].
On to `COc1ccc(/C=C/C(=O)N2CCN(S(=O)(=O)c3ccc(Br)cc3)CC2)cc1`, for which the IC50 in [27] is 0.00958 µM (active).
